Assay results as given in US10183936B2, “Hepatitis B core protein allosteric modulators” (priority 2014, dated 2019).

Assays:
[1] = test system: HBV viral production in AD38 cells; assay: Viral load production in AD38 cells by quantitative PCR of the HBV core sequence in supernatant; type: cell-based; details: Hepatitis B virus, 144 h; 10 μM compound, 6 days at 37° C., viral load in supernatant compared against DMSO control wells; read-out: AD38 Viral Load (CpAM/DMSO %) at 10 μM
Outline: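 AD38 cells seeded at 50,000/well, treated 6 days at 37° C with compound added as 10× solution in 10% DMSO. HBV core sequence in clarified supernatant quantified by TaqMan qPCR against known standards; viral load compared with DMSO control wells.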

AD38 cells = assay: Viability of AD38 cells (Promega CellTiter-Glo) at the end of compound treatment; type: cell-based; details: 10 μM compound, 6 days, luminescence normalized against DMSO control wells (controls being 100%)
Outline: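 AD38 cells seeded at 50,000/well received compound from a 10× solution in 10% DMSO and were incubated 6 days at 37° C. Viability was then read by CellTiter-Glo luminescence in tetracycline-free medium with 2% FBS and 1% DMSO, normalized to DMSO control wells (100%) and reported as percent viability.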

Row | Structure (SMILES) | activity at 10 µM [1] [%] | AD38 Viability Normalized Result (CPAM/DMSO %) at 10 μM (AD38 cells) [%]
1 | O=C(NCCc1cnco1)c1ccc2c(c1)NC(=O)c1ccc(F)cc1S2 [Compound 1402] | 12 | 81
2 | O=C(NCCc1cncs1)c1ccc2c(c1)NC(=O)c1ccc(F)cc1S2 [Compound 1403] | 15 | 82
3 | CCOC(=O)C(NC(=O)c1ccc2c(c1)NC(=O)c1cc(F)ccc1S2)c1ccncc1 (stereo not drawn) [Compound 1405] | 14 | 94
4 | O=C(NCc1cncs1)c1ccc2c(c1)NC(=O)c1cccc(F)c1S2 [Compound 1407] | 3 | 103
5 | O=C(NCc1cnco1)c1ccc2c(c1)NC(=O)c1cccc(F)c1S2 [Compound 1408] | 17 | 94
6 | O=C(NCCc1cncnc1)c1ccc2c(c1)NC(=O)c1cccc(F)c1S2 [Compound 1409] | 4 | 83
7 | O=C(Nc1cccc(-c2ccccc2)c1)c1ccc2c(c1)NC(=O)c1cccc(F)c1S2 [Compound 1410] | 35 | 50
8 | O=C(NCCc1cncnc1)c1cc2c(cc1F)Sc1ccccc1C(=O)N2 [Compound 1411] | 66 | 91
9 | O=C1Nc2cc(S(=O)(=O)Nc3ccccc3)ccc2Sc2ccccc21 [Compound 1412] | 48 | 87
10 | O=C1Nc2cc(S(=O)(=O)Nc3ccc(F)cc3)ccc2Sc2ccccc21 [Compound 1413] | 92 | 78
11 | O=C1Nc2cc(S(=O)(=O)NCc3ccccc3)ccc2Sc2ccccc21 [Compound 1414] | 39 | 89
12 | O=C1Nc2cc(S(=O)(=O)NCc3ccc(F)cc3)ccc2Sc2ccccc21 [Compound 1415] | 27 | 77
13 | O=C(NCCc1cnco1)c1ccc2c(c1)NC(=O)c1cc(F)ccc1S2 [Compound 1417] | 11 | 75
14 | O=C(NCCc1cncs1)c1ccc2c(c1)NC(=O)c1cc(F)ccc1S2 [Compound 1418] | 12 | 73
15 | O=C(O)c1ccc(-c2cccc(NC(=O)c3ccc4c(c3)NC(=O)c3cc(F)ccc3S4)c2)cc1 [Compound 1419, 3′-(2-fluoro-11-oxo-10, 11-dihydrodibenzo [b,f] [1,4]thiazepine-8-carboxamido)-[1, 1′-biphenyl]-4-carboxylic acid] | 113 | 89
16 | COC(=O)c1ccc(-c2cccc(NC(=O)c3ccc4c(c3)NC(=O)c3cc(F)ccc3S4)c2)cc1 [Compound 1420, Methyl 3′-(2-fluoro-11-oxo-10, 11-dihydrodibenzo [b,f] [1,4]thiazepine-8-carboxamido)-[1,1′-biphenyl]-4-carboxylate] | 29 | 86
17 | O=C(O)c1cccc(-c2cccc(NC(=O)c3ccc4c(c3)NC(=O)c3cc(F)ccc3S4)c2)c1 [Compound 1421, 3′-(2-fluoro-11-oxo-10, 11-dihydrodibenzo [b,f] [1,4]thiazepine-8-carboxamido)-[1, 1′-biphenyl]-3-carboxylic acid] | 78 | 95
18 | COC(=O)c1cccc(-c2cccc(NC(=O)c3ccc4c(c3)NC(=O)c3cc(F)ccc3S4)c2)c1 [Compound 1422, Methyl 3′-(2-fluoro-11-oxo-10, 11-dihydrodibenzo [b,f] [1,4]thiazepine-8-carboxamido)-[1, 1′-biphenyl]-3-carboxylate] | 64 | 95
19 | O=C(NCCc1cncnc1)c1ccc2c(c1)NC(=O)c1ccccc1[S+]2[O-] (stereo not drawn) [Compound 1423] | 37 | 91
20 | CCOC(=O)C(NC(=O)c1ccc2c(c1)NC(=O)c1cc(F)ccc1S2)c1ccccn1 (stereo not drawn) [Compound 1424] | 65 | 96
21 | O=C(NCc1cccnc1)c1ccc2c(c1)NC(=O)c1ccccc1[S+]2[O-] (stereo not drawn) [Compound 1427] | 7 | 85
22 | O=C(NCc1cncnc1)c1cc2c(cc1F)Sc1ccccc1C(=O)N2 [Compound 1428] | 28 | 93
23 | O=C(NCc1cncs1)c1cc2c(cc1F)Sc1ccccc1C(=O)N2 [Compound 1429] | 38 | 90
24 | O=C(NCc1cnco1)c1cc2c(cc1F)Sc1ccccc1C(=O)N2 [Compound 1430] | 56 | 92

Row | Structure (SMILES) | activity at 10 µM [1] [%] | AD38 Viability Normalized Result (CPAM/DMSO %) at 10 μM (AD38 cells) [%]
25 | O=C1Nc2cc(S(=O)(=O)N3CCC(O)CC3)ccc2Sc2ccccc21 [Compound 1431] | 115 | 92
26 | O=C1Nc2cc(S(=O)(=O)N3CCCC3)ccc2Sc2ccccc21 [Compound 1432] | 79 | 91
27 | O=C1Nc2cc(S(=O)(=O)N3CCC(O)C3)ccc2Sc2ccccc21 (stereo not drawn) [Compound 1433] | 82 | 94
28 | O=C1Nc2cc(S(=O)(=O)N3CC(O)C3)ccc2Sc2ccccc21 [Compound 1434] | 85 | 96
29 | O=C(Nc1cccc(-c2ccccc2C(=O)O)c1)c1ccc2c(c1)NC(=O)c1cc(F)ccc1S2 [Compound 1435, 3′-(2-fluoro-11-oxo-10, 11-dihydrodibenzo [b,f] [1,4]thiazepine-8-carboxamido)-[1, 1′-biphenyl]-2-carboxylic acid] | 77 | 99
30 | COC(=O)c1ccccc1-c1cccc(NC(=O)c2ccc3c(c2)NC(=O)c2cc(F)ccc2S3)c1 [Compound 1436, Methyl 3′-(2-fluoro-11-oxo-10, 11-dihydrodibenzo [b,f] [1,4]thiazepine-8-carboxamido)-[1, 1′-biphenyl]-2-carboxylate] | 10 | 104
31 | O=C(Nc1cccc(-c2cncnc2)c1)c1ccc2c(c1)NC(=O)c1cc(F)ccc1S2 [Compound 1440] | 71 | 91
32 | O=C(Nc1cccc(-c2cncs2)c1)c1ccc2c(c1)NC(=O)c1cc(F)ccc1S2 [Compound 1441] | 28 | 90
33 | O=C(Nc1nncs1)c1ccc2c(c1)NC(=O)c1cc(F)ccc1S2 [Compound 1442] | 65 | 99
34 | O=C(Nc1ncc(Cl)s1)c1ccc2c(c1)NC(=O)c1cc(F)ccc1S2 [Compound 1443] | 64 | 95
35 | O=C(Nc1ccncc1)c1ccc2c(c1)NC(=O)c1ccccc1S2 [Compound 1444] | 6 | 65
36 | O=C(Nc1cccc(-c2ccccc2)c1)c1ccc2c(c1)NC(=O)c1ccccc1S2 [Compound 1445] | 24 | 38
37 | O=C(NCc1cncnc1)c1ccc2c(c1)NC(=O)c1ccccc1S2(=O)=O [Compound 1446] | 3 | 84
38 | O=C(NCCc1ccccn1)c1ccc2c(c1)NC(=O)c1ccccc1S2(=O)=O [Compound 1447] | 1 | 85
39 | O=C(NCCc1cccnc1)c1ccc2c(c1)NC(=O)c1ccccc1S2(=O)=O [Compound 1448] | 3 | 85
40 | O=C(NCc1cccnc1)c1ccc2c(c1)NC(=O)c1ccccc1S2(=O)=O [Compound 1449] | 2 | 86
41 | CC(C)NS(=O)(=O)c1ccc2c(c1)NC(=O)c1ccccc1S2 [Compound 1450] | 73 | 94
42 | O=C(Nc1cccc(-c2ccncn2)c1)c1ccc2c(c1)NC(=O)c1cc(F)ccc1S2 [Compound 1451] | 30 | 92
43 | COc1cccc(-c2cccc(NC(=O)c3ccc4c(c3)NC(=O)c3cc(F)ccc3S4)c2)c1 [Compound 1452] | 15 | 62
44 | O=C(Nc1cccc(-c2ccc(O)cc2)c1)c1ccc2c(c1)NC(=O)c1cc(F)ccc1S2 [Compound 1453] | 48 | 97
45 | O=C(Nc1nc(-c2ccccc2)co1)c1ccc2c(c1)NC(=O)c1cc(F)ccc1S2 [Compound 1454] | 27 | 95
46 | O=C(NCc1cncs1)c1ccc2c(c1)NC(=O)c1ccccc1S2(=O)=O [Compound 1455] | 3 | 89
47 | O=C(NCc1cnco1)c1ccc2c(c1)NC(=O)c1ccccc1S2(=O)=O [Compound 1456] | 15 | 101
48 | O=C(NCCc1cncnc1)c1ccc2c(c1)NC(=O)c1ccccc1S2(=O)=O [Compound 1457] | 28 | 92
